The target of this test is T1, CYP11A1 (Homo sapiens, UniProt P05108).
T1 construct: human H295R adrenocortical carcinoma cell line was used as source of enzyme; endogenous in cells; host or cells: H295R human adrenocortical carcinoma cells
T1 sequence (P05108 40-521): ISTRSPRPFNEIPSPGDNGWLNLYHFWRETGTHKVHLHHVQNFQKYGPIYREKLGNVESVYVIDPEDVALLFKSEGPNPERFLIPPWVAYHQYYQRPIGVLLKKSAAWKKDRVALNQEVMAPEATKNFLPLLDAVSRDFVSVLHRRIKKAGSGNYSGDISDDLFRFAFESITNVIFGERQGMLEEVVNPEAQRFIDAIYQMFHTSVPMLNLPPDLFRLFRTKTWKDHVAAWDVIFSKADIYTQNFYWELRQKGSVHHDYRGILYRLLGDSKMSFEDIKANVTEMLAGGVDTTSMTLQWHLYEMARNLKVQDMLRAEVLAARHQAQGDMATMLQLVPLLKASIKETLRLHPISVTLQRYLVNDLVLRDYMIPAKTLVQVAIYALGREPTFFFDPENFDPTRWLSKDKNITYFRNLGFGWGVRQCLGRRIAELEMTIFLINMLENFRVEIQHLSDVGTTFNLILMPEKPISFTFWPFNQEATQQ
The test can be described thus: CYP11A1 inhibition: modified isocaproic acid release assay (IARA) in H295R cells. In kind it is cell-based. Conditions: human H295R adrenocortical carcinoma cells treated three days, 3 nM [24,25-3H]-labelled cholesterol, 1% DMSO, 10 concentrations in duplicates; read-out: IC50 of the test compounds on CYP11A1 inhibition. The method, boiled down:
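H295R adrenocortical cells treated three days with test compounds at 10 concentrations in duplicate plus 3 nM [24,25-3H]-cholesterol, 1% DMSO final. Released radiolabelled isocaproic acid measured by scintillation counting after dextran-coated charcoal extraction; IC50 determined.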
With `CC(C)S(=N)(=O)c1ccc(COc2coc(CN3Cc4ccccc4C3)cc2=O)cc1` (centres unmarked) [Compound 103, 2-(Isoindolin-2-ylmethyl)-5-((4-(propan-2-ylsulfonimidoyl)benzyl)oxy)-4H-pyran-4-one], the IC50 was < 150 nM.
Turning to `COCCS(=O)(=O)N1CCC(COc2coc(CN3Cc4ccccc4C3)cc2=O)CC1` [Compound 262, 2-(Isoindolin-2-ylmethyl)-5-((1-((2-methoxyethyl)sulfonyl)piperidin-4-yl)-methoxy)-4H-pyran-4-one], the IC50 was < 150 nM.
The figure for `CCC(=O)N1CCC(COc2coc(CN3Cc4ccc(C(F)(F)F)cc4C3)cc2=O)CC1` [Compound 244a, 5-((1-Propionylpiperidin-4-yl)methoxy)-2-((5-(trifluoromethyl)isoindolin-2-yl)methyl)-4H-pyran-4-one] is < 150 nM; for `CCS(=N)(=O)c1ccc(COc2coc(CN3Cc4ccc([N+](=O)[O-])cc4C3)cc2=O)cc1` (centres unmarked) [Compound 168, 5-((4-(Ethylsulfonimidoyl)benzyl)oxy)-2-((5-nitroisoindolin-2-yl)methyl)-4H-pyran-4-one] it is 150 to 300 nM; for `CC(=O)NC(C)(C)c1ccc(COc2coc(CN3Cc4ccccc4C3)cc2=O)cc1` [Compound 69, N-(2-(4-(((6-(Isoindolin-2-ylmethyl)-4-oxo-4H-pyran-3-yl)oxy)methyl)phenyl)-propan-2-yl)acetamide] it is 150 to 300 nM.
The figure for `COc1ccc(COc2coc(CN3CCc4ccccc4C3)cc2=O)cc1` [Compound 121, 2-((3,4-Dihydroisoquinolin-2(1H)-yl)methyl)-5-((4-methoxybenzyl)oxy)-4H-pyran-4-one] is 150 to 300 nM; for `CC(C)(C)OC(=O)N1CCC[C@@H](COc2coc(CN3Cc4ccccc4C3)cc2=O)C1` [Compound 202, (R)-tert-Butyl 3-(((6-(isoindolin-2-ylmethyl)-4-oxo-4H-pyran-3-yl)oxy)methyl)-piperidine-1-carboxylate] it is 301 to 2000 nM; for `CC(C)(O)Cc1ccc(COc2coc(CN3CCc4ccccc4C3)cc2=O)cc1` [Compound 46, 2-((3,4-Dihydroisoquinolin-2(1H)-yl)methyl)-5-((4-(2-hydroxy-2-methyl-propyl)benzyl)oxy)-4H-pyran-4-one] it is 150 to 300 nM.
The figure for `CS(=N)(=O)c1ccc(COc2coc(CN3Cc4ccc(C(F)(F)F)cc4C3)cc2=O)cc1` (centres unmarked) [Compound 89, 5-((4-(S-Methylsulfonimidoyl)benzyl)oxy)-2-((5-(trifluoromethyl)isoindolin-2-yl)methyl)-4H-pyran-4-one] is < 150 nM; for `CC(C)NC(=O)c1ccc(COc2coc(CN3Cc4ccccc4C3)cc2=O)cc1` [Compound 140, 4-(((6-(Isoindolin-2-ylmethyl)-4-oxo-4H-pyran-3-yl)oxy)methyl)-N-isopropylbenzamide] it is 150 to 300 nM.
`CC(=O)c1ccc(COc2coc(CN3Cc4ccccc4C3)cc2=O)cc1` [Compound 31, 5-((4-Acetylbenzyl)oxy)-2-(isoindolin-2-ylmethyl)-4H-pyran-4-one]: the IC50 fell in the range of 150 to 300 nM.
On to `O=c1cc(CN2Cc3ccccc3C2)occ1OCC1CCN(S(=O)(=O)N2CCC2)CC1` [Compound 268, 5-((1-(Azetidin-1-ylsulfonyl)piperidin-4-yl)methoxy)-2-(isoindolin-2-ylmethyl)-4H-pyran-4-one], for which the IC50 was in the range of 150 to 300 nM.
With `CN1Cc2cc(COc3coc(CN4Cc5ccccc5C4)cc3=O)ccc2C1=O` [Compound 106, 5-(((6-(Isoindolin-2-ylmethyl)-4-oxo-4H-pyran-3-yl)oxy)methyl)-2-methyl-isoindolin-1-one], the IC50 lay in the range of 301 to 2000 nM.
Under `O=C(NCCCO)c1ccc(COc2coc(CN3Cc4ccccc4C3)cc2=O)cc1` [Compound 282, N-(3-Hydroxypropyl)-4-(((6-(isoindolin-2-ylmethyl)-4-oxo-4H-pyran-3-yl)oxy)methyl)benzamide] stands 301 to 2000 nM; under `CN(C)C(=O)/C=C/c1ccc(COc2coc(CN3Cc4ccccc4C3)cc2=O)cc1` [Compound 146, (E)-3-(4-(((6-(Isoindolin-2-ylmethyl)-4-oxo-4H-pyran-3-yl)oxy)methyl)phenyl)-N,N-dimethylacrylamide], < 150 nM.
The figure for `CS(=N)(=O)C1CCC(COc2coc(CN3Cc4ccccc4C3)cc2=O)CC1` (centres unmarked) [Compound 240, 2-(Isoindolin-2-ylmethyl)-5-((4-(S-methylsulfonimidoyl)cyclohexyl)methoxy)-4H-pyran-4-one] is 301 to 2000 nM; for `CC(=O)N=S(C)(=O)c1ccc(COc2coc(CN3Cc4ccccc4C3)cc2=O)cc1` (centres unmarked) [Compound 94, N-{[4-({[6-(1,3-dihydro-2H-isoindol-2-ylmethyl)-4-oxo-4H-pyran-3-yl]oxy}-methyl)phenyl](methyl)oxido-λ^6-sulfanylidene}] it is 150 to 300 nM; for `O=c1cc(CN2Cc3ccccc3C2)occ1OCC1CN(S(=O)(=O)c2csc(Cl)c2)C1` [Compound 30, 5-((1-((5-Chlorothiophen-3-yl)sulfonyl)azetidin-3-yl)methoxy)-2-(isoindolin-2-ylmethyl)-4H-pyran-4-one] it is 150 to 300 nM.
For the compound `CC1c2ccccc2CCN1Cc1cc(=O)c(OCc2ccc(C(C)(C)O)cc2)co1` (centres unmarked) [Compound 59, 5-((4-(2-Hydroxypropan-2-yl)benzyl)oxy)-2-((1-methyl-3,4-dihydroisoquinolin-2(1H)-yl)methyl)-4H-pyran-4-one], the IC50 lay within 301 to 2000 nM.
The figure for `O=C(NC1CC1)N1CCC(COc2coc(CN3Cc4ccccc4C3)cc2=O)CC1` [Compound 247, N-Cyclopropyl-4-(((6-(isoindolin-2-ylmethyl)-4-oxo-4H-pyran-3-yl)oxy)-methyl)piperidine-1-carboxamide] is 150 to 300 nM; for `CS(=O)(=O)N1CCC(F)(COc2coc(CN3Cc4ccc(F)cc4C3)cc2=O)CC1` [Compound 237, 5-((4-Fluoro-1-(methylsulfonyl)piperidin-4-yl)methoxy)-2-((5-fluoroisoindolin-2-yl)methyl)-4H-pyran-4-one] it is 150 to 300 nM; for `CS(=N)(=O)c1ccc(COc2coc(CN3Cc4ccc(OC(F)(F)F)cc4C3)cc2=O)cc1` (centres unmarked) [Compound 90, 5-((4-(S-Methylsulfonimidoyl)benzyl)oxy)-2-((5-(trifluoromethoxy)isoindolin-2-yl)methyl)-4H-pyran-4-one] it is < 150 nM.
For `CN(C)C(=O)c1ccc(COc2coc(CN3Cc4ccc(Cl)cc4C3)cc2=O)cc1` [Compound 137, 4-(((6-((5-Chloroisoindolin-2-yl)methyl)-4-oxo-4H-pyran-3-yl)oxy)methyl)-N,N-dimethylbenzamide], the IC50 was < 150 nM.
Take `N#Cc1ccc(COc2coc(CN3CCc4ccccc4C3)cc2=O)c(F)c1` [Compound 51, 4-(((6-((3,4-Dihydroisoquinolin-2(1H)-yl)methyl)-4-oxo-4H-pyran-3-yl)oxy)-methyl)-3-fluorobenzonitrile]: the IC50 is 301 to 2000 nM.
With `N=S(=O)(c1ccc(COc2coc(CN3Cc4ccccc4C3)cc2=O)cc1)C1CCC1` (centres unmarked) [Compound 71, 5-((4-(Cyclobutanesulfonimidoyl)benzyl)oxy)-2-(isoindolin-2-ylmethyl)-4H-pyran-4-one], the IC50 was < 150 nM.
The figure for `COc1cc(COc2coc(CN3Cc4ccccc4C3)cc2=O)ccn1` [Compound 110, 2-(Isoindolin-2-ylmethyl)-5-((2-methoxypyridin-4-yl)methoxy)-4H-pyran-4-one] is 301 to 2000 nM.

For orientation: IC50 means the concentration that gives 50% inhibition.

For the origin of these results see US11098032B2, “Pyran dervatives as CYP11A1 (cytochrome P450 monooxygenase 11A1) inhibitors” (ORION CORPORATION, priority 2016, dated 2021).
